Laboratory results reported in paper PMC4962012, “Pretrichodermamides D–F from a Marine Algicolous Fungus Penicillium sp. KMM 4672” (Marine Drugs, 2016).

How the values were obtained:
[1] = MTT cytotoxicity assay, 22Rv1 cells; assay type: cell-based; details: human, 22Rv1 prostate cancer cells
Procedure: (§1) The human prostate cancer cells lines 22Rv1, PC-3, and LNCaP were purchased from ATCC. Cell lines were cultured according to the manufacturers instructions in 10% FBS/RPMI media (Invitrogen) with (for LNCaP) or without (for 22Rv1 and PC-3) 1 mM sodium pyruvate (Invitrogen). Cells were continuously kept in culture for a maximum of 3 months and were routinely inspected microscopically for stable phenotype and regularly checked for contamination with mycoplasma. Cell line authentication was performed by DSMZ (Braunschweig, Germany) using highly polymorphic short tandem repeat loci.
(§2) The in vitro cytotoxicity of individual substances was evaluated using the MTT (3-(4,5-dimethylthiazol-2-yl)-2,5-diphenyltetrazolium bromide) assay, which was performed as previously described. Cytotoxicity against CD-I mouse splenocytes was determined according to Freshney. Docetaxel was used as a reference substance.

CD-I mouse erythrocytes = assay: Hemolytic activity; assay type: cell-based
Procedure: The hemolytic activity was evaluated using CD-I mouse erythrocytes as previously described.

[2] = test system: human prostate cancer 22Rv1 cells; assay: Apoptosis induction analysis (flow cytometry, PI staining, sub-G1 peak); assay type: cell-based; details: treatment with 1 µM for 48 h
Procedure: as §1
The cell cycle distribution was analyzed by flow cytometry using PI staining as described before with slight modifications. In brief, cells were pre-incubated overnight in 6-well plates (2 × 10^5 cells/well in 2 mL/well). The medium was changed to fresh medium containing different concentrations of the substances. After 48 h of treatment, cells were harvested with a trypsin-EDTA solution, fixed with 70% EtOH, stained, and analyzed by FACS. The results were quantitatively analyzed using Cell Quest Pro software (Version 5.2.1., BD Bioscience, Bedford, MA, USA). Cells appeared at sub-G1 peak were assumed as apoptotic.

CD-I mouse splenocytes = assay: Cytotoxicity against mouse splenocytes; assay type: cell-based; details: non-malignant murine splenocytes
Procedure: as §2

[3] = test system: a number of different cancer cells; design: method as in PMID 26039736; details: up to 10 µM; cited from earlier work
[4] = MTT cytotoxicity assay, PC-3 cells; assay type: cell-based; details: human, PC-3 prostate cancer cells
Procedure: as §1, §2

[5] = MTT cytotoxicity assay, LNCaP cells; assay type: cell-based; details: human, LNCaP prostate cancer cells
Procedure: as §1, §2

Row | Compound | IC50 [1] [nM] | hemolytic activity (CD-I mouse erythrocytes; murine erythrocytes, up to 100 µM) | ED50 (erythrocytes) (CD-I mouse erythrocytes; non-malignant murine erythrocytes) [nM] | apoptosis [2] | ED50 (cytotoxicity for splenocytes) (CD-I mouse splenocytes) [nM] | cytotoxic effect against a number of different cancer cells [3] | IC50 [4] [nM] | IC50 [5] [nM]
1 | COc1ccc(C2SSC34CC5(O)C(Cl)C=CC(O)C5ON3C(=O)C2N(C)C4=O)c(O)c1OC (centres unmarked) [compound 5, N-methylpretrichodermamide B] | 510 | did not show hemolitic activity | > 100000 | 31.3% ± 8.2 | 62100 | did not show any cytotoxic effect | 5110 | 1760
2 | CC(=O)O[C@@]12CO[C@@H]1C[C@H](O)[C@@]1(C)C(=O)[C@H](O)C3=C(C)[C@@H](OC(=O)[C@H](O)[C@@H](NC(=O)OC(C)(C)C)c4ccccc4)C[C@@](O)([C@@H](OC(=O)c4ccccc4)[C@H]21)C3(C)C [docetaxel, reference compound] | 13 |  |  |  |  |  | 15 | 4
